Laboratory results taken from the NIST ThermoML archive (doi:10.1016/j.jct.2012.04.026).
± gives the expanded uncertainty stated by the source.

Legend:
[1] = Liquid, Vibrating tube method
[2] = refractive index (Na D-line) (dimensionless); settings: Liquid, Standard Abbe refractometry
[3] = wn = mass fraction of the nth substance listed; settings: 313.15 K, Liquid, Vibrating tube method
[4] = refractive index (Na D-line) (dimensionless); wn = mass fraction of the nth substance listed; settings: 313.15 K, Liquid, Standard Abbe refractometry

CCCCCC[n+]1ccn(C)c1.O=S(=O)([N-]S(=O)(=O)C(F)(F)F)C(F)(F)F
Settings	mass density, [1] [kg/m3]	refractive index, [2]
298.15 K, 101.33 kPa	1371.99 ± 0.56	1.43016 ± 0.0007
313.15 K, 101 kPa	1356.95 ± 0.54	1.42542 ± 0.0007
313.15 K, 101.3 kPa	1356.95 ± 0.54	–
313.15 K, 101.33 kPa	–	1.42542 ± 0.0007

CCCC[n+]1ccn(C)c1.O=S(=O)([N-]S(=O)(=O)C(F)(F)F)C(F)(F)F
Settings	mass density, [1] [kg/m3]	refractive index, [2]
298.15 K, 101.33 kPa	1436.1 ± 0.62	1.42672 ± 0.0007
313.15 K, 101 kPa	1420.7 ± 0.6	1.42437 ± 0.0007
313.15 K, 101.3 kPa	1420.7 ± 0.6	–
313.15 K, 101.33 kPa	–	1.42437 ± 0.0007

CCCn1cc[n+](C)c1.O=S(=O)([N-]S(=O)(=O)C(F)(F)F)C(F)(F)F
Settings	mass density, [1] [kg/m3]	refractive index, [2]
298.15 K, 101.33 kPa	1473.97 ± 0.65	1.42525 ± 0.0007
313.15 K, 101 kPa	1458.33 ± 0.64	1.42016 ± 0.0007
313.15 K, 101.3 kPa	1458.33 ± 0.64	–
313.15 K, 101.33 kPa	–	1.42016 ± 0.0007

CCn1cc[n+](C)c1.O=S(=O)([N-]S(=O)(=O)C(F)(F)F)C(F)(F)F
Settings	mass density, [1] [kg/m3]	refractive index, [2]
298.15 K, 101.33 kPa	1518.74 ± 0.7	1.42307 ± 0.0007
313.15 K, 101 kPa	1502.2 ± 0.68	1.41695 ± 0.0007
313.15 K, 101.3 kPa	1502.2 ± 0.68	–
313.15 K, 101.33 kPa	–	1.41695 ± 0.0007

CCCCCC[n+]1ccn(C)c1.O=S(=O)([N-]S(=O)(=O)C(F)(F)F)C(F)(F)F + CCO
Settings	mass density, 101 kPa [kg/m3]	mass density, 101.3 kPa [kg/m3]	refractive index, 101 kPa	refractive index, 101.3 kPa	refractive index, 10234 kPa
[3], w2 = 0.099	1270.96 ± 0.47	1270.96 ± 0.46	–	–	–
[3], w2 = 0.231	1161.07 ± 0.41	1161.07 ± 0.37	–	–	–
[3], w2 = 0.328	1092.32 ± 0.37	1092.32 ± 0.31	–	–	–
[3], w2 = 0.529	973.37 ± 0.33	973.37 ± 0.24	–	–	–
[3], w2 = 0.646	914.93 ± 0.29	914.93 ± 0.24	–	–	–
[3], w2 = 0.74	872.96 ± 0.26	872.96 ± 0.24	–	–	–
[3], w2 = 0.901	808.24 ± 0.24	808.24 ± 0.24	–	–	–
[4], w2 = 0.099	–	–	1.41392 ± 0.0007	1.41392 ± 0.0007	1.41392 ± 0.0007
[4], w2 = 0.231	–	–	1.40128 ± 0.0007	1.40128 ± 0.0007	1.40128 ± 0.0007
[4], w2 = 0.328	–	–	1.39325 ± 0.0007	1.39325 ± 0.0007	1.39325 ± 0.0007
[4], w2 = 0.529	–	–	1.37912 ± 0.0007	1.37912 ± 0.0007	1.37912 ± 0.0007
[4], w2 = 0.646	–	–	1.37165 ± 0.0007	1.37165 ± 0.0007	1.37165 ± 0.0007
[4], w2 = 0.74	–	–	1.36626 ± 0.0007	1.36626 ± 0.0007	1.36626 ± 0.0007
[4], w2 = 0.901	–	–	1.35782 ± 0.0007	1.35782 ± 0.0007	1.35782 ± 0.0007

CCCC[n+]1ccn(C)c1.O=S(=O)([N-]S(=O)(=O)C(F)(F)F)C(F)(F)F + CCO
Settings	mass density, 101 kPa [kg/m3]	mass density, 101.3 kPa [kg/m3]	refractive index, 101 kPa	refractive index, 101.3 kPa	refractive index, 10234 kPa
[3], w2 = 0.008	1411.58 ± 0.59	1411.58 ± 0.59	–	–	–
[3], w2 = 0.015	1403.51 ± 0.58	1403.51 ± 0.58	–	–	–
[3], w2 = 0.032	1384.48 ± 0.57	1384.48 ± 0.57	–	–	–
[3], w2 = 0.084	1329.16 ± 0.52	1329.16 ± 0.51	–	–	–
[3], w2 = 0.156	1259.12 ± 0.47	1259.12 ± 0.45	–	–	–
[3], w2 = 0.202	1218.21 ± 0.44	1218.21 ± 0.42	–	–	–
[3], w2 = 0.385	1077.75 ± 0.41	1077.75 ± 0.3	–	–	–
[3], w2 = 0.48	1016.97 ± 0.4	1016.97 ± 0.25	–	–	–
[4], w2 = 0.008	–	–	1.42305 ± 0.0007	1.42305 ± 0.0007	1.42305 ± 0.0007
[4], w2 = 0.015	–	–	1.42222 ± 0.0007	1.42222 ± 0.0007	1.42222 ± 0.0007
[4], w2 = 0.032	–	–	1.41981 ± 0.0007	1.41981 ± 0.0007	1.41981 ± 0.0007
[4], w2 = 0.084	–	–	1.41301 ± 0.0007	1.41301 ± 0.0007	1.41301 ± 0.0007
[4], w2 = 0.156	–	–	1.40517 ± 0.0007	1.40517 ± 0.0007	1.40517 ± 0.0007
[4], w2 = 0.202	–	–	1.40056 ± 0.0007	1.40056 ± 0.0007	1.40056 ± 0.0007
[4], w2 = 0.385	–	–	1.38611 ± 0.0007	1.38611 ± 0.0007	1.38611 ± 0.0007
[4], w2 = 0.48	–	–	1.37983 ± 0.00071	1.37983 ± 0.0007	1.37983 ± 0.00071

CCCn1cc[n+](C)c1.O=S(=O)([N-]S(=O)(=O)C(F)(F)F)C(F)(F)F + CCO
Settings	mass density, 101 kPa [kg/m3]	mass density, 101.3 kPa [kg/m3]	refractive index, 101 kPa	refractive index, 101.3 kPa	refractive index, 10234 kPa
[3], w2 = 0.019	1433.96 ± 0.61	1433.96 ± 0.61	–	–	–
[3], w2 = 0.035	1414.83 ± 0.6	1414.83 ± 0.59	–	–	–
[3], w2 = 0.082	1362.5 ± 0.55	1362.5 ± 0.55	–	–	–
[3], w2 = 0.133	1309.15 ± 0.51	1309.15 ± 0.5	–	–	–
[3], w2 = 0.186	1256.95 ± 0.48	1256.95 ± 0.45	–	–	–
[3], w2 = 0.267	1183.97 ± 0.43	1183.97 ± 0.39	–	–	–
[3], w2 = 0.55	983.52 ± 0.4	983.52 ± 0.24	–	–	–
[4], w2 = 0.019	–	–	1.41801 ± 0.0007	1.41801 ± 0.0007	1.41801 ± 0.0007
[4], w2 = 0.035	–	–	1.4161 ± 0.0007	1.4161 ± 0.0007	1.4161 ± 0.0007
[4], w2 = 0.082	–	–	1.41105 ± 0.0007	1.41105 ± 0.0007	1.41105 ± 0.0007
[4], w2 = 0.133	–	–	1.40604 ± 0.0007	1.40604 ± 0.0007	1.40604 ± 0.0007
[4], w2 = 0.186	–	–	1.40101 ± 0.0007	1.40101 ± 0.0007	1.40101 ± 0.0007
[4], w2 = 0.267	–	–	1.39403 ± 0.0007	1.39403 ± 0.0007	1.39403 ± 0.0007
[4], w2 = 0.55	–	–	1.37499 ± 0.0007	1.37499 ± 0.0007	1.37499 ± 0.0007

CCn1cc[n+](C)c1.O=S(=O)([N-]S(=O)(=O)C(F)(F)F)C(F)(F)F + CCO
Settings	mass density, 101 kPa [kg/m3]	mass density, 101.3 kPa [kg/m3]	refractive index, 101 kPa	refractive index, 101.3 kPa	refractive index, 10234 kPa
[3], w2 = 0.014	1481.64 ± 0.66	1481.64 ± 0.66	–	–	–
[3], w2 = 0.034	1456.07 ± 0.63	1456.07 ± 0.63	–	–	–
[3], w2 = 0.072	1409.69 ± 0.6	1409.69 ± 0.59	–	–	–
[3], w2 = 0.126	1347.49 ± 0.55	1347.49 ± 0.53	–	–	–
[3], w2 = 0.278	1195.34 ± 0.46	1195.34 ± 0.4	–	–	–
[3], w2 = 0.324	1155.44 ± 0.46	1155.44 ± 0.36	–	–	–
[3], w2 = 0.635	943.07 ± 0.3	943.07 ± 0.24	–	–	–
[4], w2 = 0.014	–	–	1.41547 ± 0.0007	1.41547 ± 0.0007	1.41547 ± 0.0007
[4], w2 = 0.034	–	–	1.41333 ± 0.0007	1.41333 ± 0.0007	1.41333 ± 0.0007
[4], w2 = 0.072	–	–	1.40945 ± 0.0007	1.40945 ± 0.0007	1.40945 ± 0.0007
[4], w2 = 0.126	–	–	1.40425 ± 0.0007	1.40425 ± 0.0007	1.40425 ± 0.0007
[4], w2 = 0.278	–	–	1.3915 ± 0.0007	1.3915 ± 0.0007	1.3915 ± 0.0007
[4], w2 = 0.324	–	–	1.38812 ± 0.0007	1.38812 ± 0.0007	1.38812 ± 0.0007
[4], w2 = 0.635	–	–	1.36939 ± 0.0007	1.36939 ± 0.0007	1.36939 ± 0.0007

CCO [ethanol]
Settings	mass density, [1] [kg/m3]	refractive index, [2]
298.15 K, 101.33 kPa	785.2 ± 0.24	–
313.15 K, 101 kPa	773.03 ± 0.24	1.35353 ± 0.0007
313.15 K, 101.3 kPa	773.03 ± 0.24	–
313.15 K, 101.33 kPa	–	1.35353 ± 0.0007

CCCCCCC [heptane]
298.15 K, 101.33 kPa
Settings	mass density [kg/m3]	refractive index
[1]	679.57 ± 0.25	–
[2]	–	1.38529 ± 0.0007
